The values that follow come from patent US20240033278A9, “CONJUGATE GROUP AND CONJUGATE” (MEDSHINE DISCOVERY INC., priority 2020, published 2024).

This test concerns the target T1, human-derived anti-asialoglycoprotein receptors (ASGPR) (Homo sapiens, UniProt P07306).
T1 construct: purchased Sino Biological 10773-H07H
T1 sequence (P07306 1-291): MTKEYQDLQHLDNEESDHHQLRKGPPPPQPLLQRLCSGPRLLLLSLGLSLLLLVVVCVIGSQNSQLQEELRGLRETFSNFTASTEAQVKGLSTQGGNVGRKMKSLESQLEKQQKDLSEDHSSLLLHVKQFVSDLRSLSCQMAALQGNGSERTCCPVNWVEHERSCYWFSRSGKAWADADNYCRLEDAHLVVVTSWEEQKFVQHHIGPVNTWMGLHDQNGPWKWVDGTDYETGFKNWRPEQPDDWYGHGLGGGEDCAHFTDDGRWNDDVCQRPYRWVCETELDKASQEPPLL
The test can be described thus: Binding affinity of the compound to human-derived ASGPR by surface plasmon resonance (SPR). As for the experimental part:
Assay Example 1. Test of the Binding Affinity of the Compound to Human-Derived […]
The binding affinity of the compound to human-derived […] (ASGPR) was tested by surface plasmon resonance (SPR) technique, and the kinetic KD value of the compound was used as an indicator to evaluate the binding affinity of the compound to ASGPR, thereby reflecting the ability of the compound to specifically target hepatocytes for delivery of nucleic acid molecules.
Asialoglycoprotein Receptor Protein, Mouse, Recombinant (His Tag), Sino biological-50083-M07H-50 μg; Asialoglycoprotein Receptor Protein, Human, Recombinant (His Tag), Sino biological-10773-H07H-50 μg
3.1 The two proteins were respectively dissolved in 1×PBS to obtain a solution of 0.25 mg/mL, and the compound to be tested was dissolved in DMSO. The running buffer (10 mM HEPES, 150 mM NaCl, 0.05% Tween 20, 50 mM CaCl2, 50 μM EDTA) was prepared and filtered through a 0.22 μm membrane.
3.2 The NiHC 1500M Chip was docked into a biacore, and the system was switched to a running buffer.
3.3 Protein labeling: The chip was first treated with 350 mM EDTA at 30 μl/min for 5 min, rinsed with running buffer for 2 min, and then bound with 40 mM NiCl2 at 30 μl/min for 2 min. A protein diluted to 5 μg/mL with running buffer was then labeled on the chip at a flow rate of 10 μl/min for a final labeling amount of 1500-2000 RU.
3.4 The instrument system was switched to a running buffer containing 2% DMSO.
3.5 The compound with a starting concentration of 2 μM was serially diluted 2-fold with a running buffer containing 2% DMSO to obtain 9 concentrations. The final concentration of DMSO was 2%.
3.6 Testing: For each cycle, the compound was bound for 60 s and dissociated for 180 s at a flow rate of 50 μl/min. The compound was tested in order of concentration from low to high. Before the gradient testing of the compound, 4 cycles of blank (running buffer with 2% DMSO) were introduced, and solvent correction was performed with 1.5%-3.5% DMSO (6 concentrations).
The data were analyzed with Biacore Insight Evaluation Software, kinetics was analyzed with a 1:1 model, and affinity was analyzed with a steady state affinity model.
(SPR reads the build-up and loss of mass on a sensor chip optically.)

Consider `COc1ccc(C(OC[C@@H]2C[C@@H](O)CN2C(=O)CCCCCCCCCCOCC(COCCC(=O)NCCCNC(=O)CCCCOC2OC(CO)C(O)C(O)C2NC(C)=O)(COCCC(=O)NCCCNC(=O)CCCCOC2OC(CO)C(O)C(O)C2NC(C)=O)NC(=O)CCC(=O)NCCCNC(=O)CCCCOC2OC(CO)C(O)C(O)C2NC(C)=O)(c2ccccc2)c2ccc(OC)cc2)cc1` (stereo partly drawn) [Compound D-01-M], for which the “binding affinity in the SPR assay (in words)” value (SPR) is “good binding affinity”. Also, the Kd (as a rule, the free concentration of one partner at which half of the binding sites on the other are occupied at equilibrium, for simple one-to-one binding) (SPR (Biacore 8k), kinetic KD, 1:1 model, His-tagged recombinant protein on NiHC 1500M chip) amounted to 15.6 nM. In addition, where the note is “SPR, association rate constant, 1:1 model, read-out: Ka”, the kon stood at 1.08e+06 M⁻¹ s⁻¹. Also, the koff (as a rule, a measure of how fast the partners let go of each other) (SPR, dissociation rate constant, 1:1 model) stood at 0.0168 s⁻¹.
